In US12492188B2, “1H-benzo[D]imidazole derivatives as TLR9 inhibitors for the treatment of fibrosis” (BRISTOL-MYERS SQUIBB COMPANY, priority 2020, dated 2025):
Read-outs that look alike come from different tables or passages of the source.

Key:
human TLR9 = molecular target: T1, human TLR9 (Homo sapiens, UniProt Q9NR96); experiment: TLR9 inhibition reporter assay (HEK-Blue cells, secreted embryonic alkaline phosphatase reporter); format: cell-based
T1 construct: host or cells: HEK-Blue cells (HEK293-derived reporter line)
T1 sequence (Q9NR96 26-1032): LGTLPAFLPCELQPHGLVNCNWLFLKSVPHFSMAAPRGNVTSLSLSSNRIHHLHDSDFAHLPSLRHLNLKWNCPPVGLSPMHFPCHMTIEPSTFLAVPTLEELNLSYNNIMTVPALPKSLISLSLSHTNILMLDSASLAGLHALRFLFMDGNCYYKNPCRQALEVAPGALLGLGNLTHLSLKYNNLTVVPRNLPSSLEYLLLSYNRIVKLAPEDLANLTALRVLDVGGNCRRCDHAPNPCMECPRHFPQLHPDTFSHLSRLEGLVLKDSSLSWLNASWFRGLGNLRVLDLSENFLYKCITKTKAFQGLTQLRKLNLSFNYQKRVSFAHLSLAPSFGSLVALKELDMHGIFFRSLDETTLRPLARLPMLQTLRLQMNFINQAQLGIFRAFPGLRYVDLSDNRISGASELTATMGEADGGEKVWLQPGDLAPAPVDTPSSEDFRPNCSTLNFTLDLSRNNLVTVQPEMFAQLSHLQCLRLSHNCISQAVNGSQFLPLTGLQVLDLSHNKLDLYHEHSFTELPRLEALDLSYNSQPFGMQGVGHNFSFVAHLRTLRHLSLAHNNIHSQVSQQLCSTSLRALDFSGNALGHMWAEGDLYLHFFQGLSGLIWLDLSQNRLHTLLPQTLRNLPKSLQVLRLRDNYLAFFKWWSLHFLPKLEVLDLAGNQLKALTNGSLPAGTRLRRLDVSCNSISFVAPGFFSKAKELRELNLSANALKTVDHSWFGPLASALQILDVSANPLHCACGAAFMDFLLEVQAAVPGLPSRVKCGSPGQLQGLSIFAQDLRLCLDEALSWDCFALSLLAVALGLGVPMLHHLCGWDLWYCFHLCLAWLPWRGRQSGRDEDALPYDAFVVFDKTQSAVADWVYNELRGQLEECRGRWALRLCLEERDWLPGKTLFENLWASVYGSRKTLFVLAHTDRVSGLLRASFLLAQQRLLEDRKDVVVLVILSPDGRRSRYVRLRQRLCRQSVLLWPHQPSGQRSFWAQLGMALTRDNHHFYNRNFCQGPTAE
Summary of the method: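 HEK-Blue cells overexpressing the respective receptor, with an NF-κB/AP-1-driven SEAP reporter, were pre-treated with compound (0.05 nM–50 μM) for 30 min at room temperature. Stimulation used gardiquimod 7.5 μM (TLR7), R848 15.9 μM (TLR8) or ODN2006 5 nM (TLR9); SEAP was read after 22 h at 37 °C as percent inhibition.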

human TLR7 = molecular target: T2, human TLR7 (Homo sapiens, UniProt Q9NYK1); experiment: TLR7 inhibition reporter assay (HEK-Blue cells, secreted embryonic alkaline phosphatase reporter); format: cell-based; conditions: HEK-Blue cells overexpressing human TLR7, stimulated with gardiquimod 7.5 μM; read-out: TLR 7 IC50
T2 construct: host or cells: HEK-Blue cells (HEK293-derived reporter line)
T2 sequence (Q9NYK1 27-1049): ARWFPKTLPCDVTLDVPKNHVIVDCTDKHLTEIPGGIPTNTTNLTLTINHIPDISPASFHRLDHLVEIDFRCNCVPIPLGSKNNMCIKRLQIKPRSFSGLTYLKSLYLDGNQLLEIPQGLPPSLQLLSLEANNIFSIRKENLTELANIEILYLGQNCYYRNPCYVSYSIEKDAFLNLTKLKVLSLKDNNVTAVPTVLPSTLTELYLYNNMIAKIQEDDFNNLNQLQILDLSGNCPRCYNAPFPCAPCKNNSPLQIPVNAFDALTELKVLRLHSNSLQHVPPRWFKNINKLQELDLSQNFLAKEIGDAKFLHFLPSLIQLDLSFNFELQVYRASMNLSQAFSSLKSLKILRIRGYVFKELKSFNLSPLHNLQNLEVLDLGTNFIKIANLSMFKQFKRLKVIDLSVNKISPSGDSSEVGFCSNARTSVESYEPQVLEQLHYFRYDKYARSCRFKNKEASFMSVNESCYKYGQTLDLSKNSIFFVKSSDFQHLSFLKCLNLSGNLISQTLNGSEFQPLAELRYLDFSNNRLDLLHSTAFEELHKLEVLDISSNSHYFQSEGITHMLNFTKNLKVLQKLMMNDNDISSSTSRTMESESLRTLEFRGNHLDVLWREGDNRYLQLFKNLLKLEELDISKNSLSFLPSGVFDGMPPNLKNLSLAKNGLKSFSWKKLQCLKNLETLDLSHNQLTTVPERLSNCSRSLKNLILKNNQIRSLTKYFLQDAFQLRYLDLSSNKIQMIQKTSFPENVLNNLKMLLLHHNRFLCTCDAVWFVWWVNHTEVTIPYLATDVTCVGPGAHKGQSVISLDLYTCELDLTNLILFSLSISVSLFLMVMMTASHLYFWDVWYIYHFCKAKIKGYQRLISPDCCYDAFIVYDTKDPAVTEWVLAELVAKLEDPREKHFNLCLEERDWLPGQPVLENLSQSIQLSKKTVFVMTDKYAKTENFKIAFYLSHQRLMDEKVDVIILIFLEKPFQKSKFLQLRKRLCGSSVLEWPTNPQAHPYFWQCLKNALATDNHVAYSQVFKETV
Protocol: TLR7/8/9 Inhibition Reporter Assays
HEK-Blue™-cells (Invivogen) overexpressing human TLR7, TLR8 or TLR9 receptors were used for screening inhibitors of these receptors using an inducible SLAP (secreted embryonic alkaline phosphatase) reporter gene under the control of the […] minimal promoter fused to five NF-κB and AP-1-binding sites. Briefly, cells are seeded into Greiner 384 well plates (15000 cells per well for TLR7, 20,000 for TLR8 and 25,000 for TLR9) and then treated with test compounds in DMSO to yield a final dose response concentration range of 0.05 nM-50 μM. After a 30 minute compound pre-treatment at room temperature, the cells are then stimulated with a TLR7 ligand (gardiquimod at a final concentration of 7.5 μM), TLR8 ligand (R848 at a final concentration of 15.9 μM) or TLR9 ligand (ODN2006 at a final concentration of 5 nM) to activate NF-κB and AP-1 which induce the production of SLAP. After a 22 hour incubation at 37° C., […], SLAP levels are determined with the addition of HEK-Blue™ Detection reagent (Invivogen), a cell culture medium that allows for detection of SLAP, according to manufacturer's specifications. The percent inhibition is determined as the […] in the HEK-Blue signal present in wells treated with agonist plus DMSO alone compared to wells treated with a known inhibitor.

[1] = HEK-Blue cells overexpressing human TLR9, stimulated with ODN2006 5 nM, 22 hour incubation, reporter readout
[2] = HEK-Blue cells overexpressing human TLR9, stimulated with ODN2006 5 nM, read-out: TLR 9 IC50
[3] = HEK-Blue human TLR9 reporter cells

Row | Compound | IC50 (human TLR9; [1]) [nM] | IC50 (human TLR9; [2]) [nM] | IC50 (human TLR7) [nM] | IC50 (human TLR9; [3]) [nM] | IC50 (human TLR9) [nM]
1 | Cc1cc(-c2ccc(CN3CCC(N4CCCC4)CC3)cc2)cc2c1nc(-c1ccc(S(C)(=O)=O)cc1)n2C [Example 369, 1,4-dimethyl-2-(4-(methylsulfonyl)phenyl)-6-(4-((4-(pyrrolidin-1-yl)piperidin-1-yl)methyl)phenyl)-1H-benzo[d]imidazole] | 120 | 121 | 900 | – | –
2 | Cc1cc(-c2ccc(C3CCN(C)CC3)cc2)cc2c1nc(-c1ccc(S(C)(=O)=O)cc1)n2C [Example 363, 1,4-dimethyl-6-(4-(1-methylpiperidin-4-yl)phenyl)-2-(4-(methylsulfonyl)phenyl)-1H-benzo[d]imidazole] | 140 | 100 | 4300 | – | –
3 | Cc1cc(-c2ccc(CN3C[C@H]4CN(C)C[C@H]4C3)cc2)cc2c1nc(-c1ccc(S(C)(=O)=O)cc1)n2C [Example 398, 1,4-dimethyl-6-(4-((cis-5-methylhexahydropyrrolo[3,4-c]pyrrol-2(1H)-yl)methyl)phenyl)-2-(4-(methylsulfonyl)phenyl)-1H-benzo[d]imidazole] | 130 | 128 | 1700 | – | –
4 | Cn1c(-c2ccc(S(C)(=O)=O)cc2)nc2ccc(C3CCN(C4CCCN(C5CCOCC5)CC4)CC3)c(F)c21 (centres unmarked) [Example 317, 7-fluoro-1-methyl-2-(4-(methylsulfonyl)phenyl)-6-(1-(1-(tetrahydro-2H-pyran-4-yl)azepan-4-yl)piperidin-4-yl)-1H-benzo[d]imidazole] | – | 18 | > 50000 | 18 | –
5 | Cc1cc(-c2ccc(CN3C[C@@H]4CN(CC(C)C)C[C@@H]4C3)cc2)cc2c1nc(-c1ccc(S(C)(=O)=O)cc1)n2C [Example 396, 6-(4-((cis-5-isobutylhexahydropyrrolo[3,4-c]pyrrol-2(1H)-yl)methyl)phenyl)-1,4-dimethyl-2-(4-(methylsulfonyl)phenyl)-1H-benzo[d]imidazole] | 200 | 203 | 6700 | – | –
6 | CC(C)N1CCC(N2CCC(c3cc(F)c4nc(-c5ccc(S(C)(=O)=O)cc5)n(C5CC5)c4c3)CC2)CC1 [Example 115, 1-cyclopropyl-4-fluoro-6-(1′-isopropyl-[1,4′-bipiperidin]-4-yl)-2-(4-(methylsulfonyl)phenyl)-1H-benzo[d]imidazole] | 24 | – | 1900 | – | –
7 | Cc1cc(C2CCN(C3CCCN(C4CCC4)CC3)CC2)cc2c1nc(-c1ccc(S(C)(=O)=O)cc1)n2C (centres unmarked) [Example 135, 6-(1-(1-cyclobutylazepan-4-yl)piperidin-4-yl)-1,4-dimethyl-2-(4-(methylsulfonyl)phenyl)-1H-benzo[d]imidazole] | – | 23 | – | – | 23
8 | Cc1cc(C2CCN(C3CCN(CC(C)C)CC3)CC2)cc2[nH]c(-c3ccc(C4CC4)cc3)nc12 [Example 68, 2-(4-cyclopropylphenyl)-6-(1′-isobutyl-[1,4′-bipiperidin]-4-yl)-4-methyl-1H-benzo[d]imidazole] | 85 | 85 | – | – | –
9 | COc1ccc(-c2nc3c(C)cc(C4CCN(C5CC6CCC(C5)N6C5CCC5)CC4)cc3n2C)cc1OC (centres unmarked) [Example 146, 6-(1-(8-cyclobutyl-8-azabicyclo[3.2.1]octan-3-yl)piperidin-4-yl)-2-(3,4-dimethoxyphenyl)-1,4-dimethyl-1H-benzo[d]imidazole] | – | 70 | – | – | 70
10 | COc1ccc(-c2nc3cc(F)c(C4CCN(C5CCN(CC(C)C)CC5)CC4)cc3[nH]2)cc1OC [Example 130, 2-(3,4-dimethoxyphenyl)-5-fluoro-6-(1′-isobutyl-[1,4′-bipiperidin]-4-yl)-1H-benzo[d]imidazole] | – | 22 | – | – | 22
11 | Cc1cc(C2CCN(C3CC4CCC(C3)N4CC3CC3)CC2)cc2[nH]c(-c3ccc(S(C)(=O)=O)c(F)c3)nc12 (centres unmarked) [Example 352, 6-(1-(8-(cyclopropylmethyl)-8-azabicyclo[3.2.1]octan-3-yl)piperidin-4-yl)-2-(3-fluoro-4-(methylsulfonyl)phenyl)-4-methyl-1H-benzo[d]imidazole] | – | 26 | – | 26 | –
12 | COc1cc(-c2nc3c(C)cc(C4CCN(C5CC6CCC(C5)N6C5CCC5)CC4)cc3n2C)cn2ncnc12 (single isomer, unassigned) [Example 356, 6-(6-(1-(8-cyclobutyl-8-azabicyclo[3.2.1]octan-3-yl)piperidin-4-yl)-1,4-dimethyl-1H-benzo[d]imidazol-2-yl)-8-methoxy-[1,2,4]triazolo[1,5-a]pyridine] | – | 41 | – | 41 | –
13 | Cc1cc(C2CCN(C3CC4(C3)CN(C(C)C)C4)CC2)cc2c1nc(-c1ccc(S(C)(=O)=O)cc1)n2C [Example 139, 6-(1-(2-isopropyl-2-azaspiro[3.3]heptan-6-yl)piperidin-4-yl)-1,4-dimethyl-2-(4-(methylsulfonyl)phenyl)-1H-benzo[d]imidazole] | – | 211 | – | – | 210
14 | CS(=O)(=O)c1ccc(-c2nc3c(F)cc(-c4ccc(CN5CC6(C5)CN(C5CCOCC5)C6)cc4)cc3n2C2CC2)cc1 [Example 412, 1-cyclopropyl-4-fluoro-2-(4-(methylsulfonyl)phenyl)-6-(4-((6-(tetrahydro-2H-pyran-4-yl)-2,6-diazaspiro[3.3]heptan-2-yl)methyl)phenyl)-1H-benzo[d]imidazole] | 77 | 77 | – | – | –
15 | Cc1noc(C)c1-c1nc2c(C)cc(C3CCN(C4CCN(CC(C)C)CC4)CC3)cc2[nH]1 [Example 71, 4-(6-(1′-isobutyl-[1,4′-bipiperidin]-4-yl)-4-methyl-1H-benzo[d]imidazol-2-yl)-3,5-dimethylisoxazole] | 1800 | 1770 | – | – | –
